In US9505749B2, “Quinazolinone compounds and derivatives thereof” (AMGEN INC., priority 2012, dated 2016):
pEC50, pIC50: −log10 of the molar value. Read-outs that look alike come from different tables or passages of the source.

What was measured:
[1] = system: total β-catenin in SW480 colorectal cells; assay: Total β-catenin MSD 96-well plate assay for SW480 cells; conditions: Homo sapiens, SW480, read-out: SW480-Total beta-catenin (TBC) IC50 IP
[2] = molecular target: PARP2 (Homo sapiens (Human), UniProt Q9UGN5); assay: PARP2 biochemical assay (BPS kit)
[3] = molecular target: 6×HIS-tankyrase 2 (946-1162) (Homo sapiens (Human), UniProt Q9H2K2); assay: Tankyrase 2 biochemical assay (AlphaLisa, PARsylation); conditions: 250 nM NAD; read-out: TNKS2 IC50
[4] = system: Axin2 accumulation in SW480 cells; assay: Axin2 384 immunofluorescence assay; type: cell-based; conditions: Homo sapiens, read-out: Axin2 384 IF EC50
[5] = molecular target: 6×HIS-tankyrase1 (1091-1325) (Homo sapiens (Human), UniProt O95271); assay: Tankyrase 1 biochemical assay (AlphaLisa, PARsylation); conditions: 400 nM NAD, 60 minutes at RT; read-out: TNKS1 IC50
[6] = molecular target: PARP1 (Homo sapiens (Human), UniProt P09874); assay: PARP1 biochemical assay (Trevigen kit)
From the text: PARP1 biochemical assay was purchased as a kit from Trevigen (cat.#4676-096-K) and used per manufacturers recommendations.

PARP1, sequence (P09874 whole entry): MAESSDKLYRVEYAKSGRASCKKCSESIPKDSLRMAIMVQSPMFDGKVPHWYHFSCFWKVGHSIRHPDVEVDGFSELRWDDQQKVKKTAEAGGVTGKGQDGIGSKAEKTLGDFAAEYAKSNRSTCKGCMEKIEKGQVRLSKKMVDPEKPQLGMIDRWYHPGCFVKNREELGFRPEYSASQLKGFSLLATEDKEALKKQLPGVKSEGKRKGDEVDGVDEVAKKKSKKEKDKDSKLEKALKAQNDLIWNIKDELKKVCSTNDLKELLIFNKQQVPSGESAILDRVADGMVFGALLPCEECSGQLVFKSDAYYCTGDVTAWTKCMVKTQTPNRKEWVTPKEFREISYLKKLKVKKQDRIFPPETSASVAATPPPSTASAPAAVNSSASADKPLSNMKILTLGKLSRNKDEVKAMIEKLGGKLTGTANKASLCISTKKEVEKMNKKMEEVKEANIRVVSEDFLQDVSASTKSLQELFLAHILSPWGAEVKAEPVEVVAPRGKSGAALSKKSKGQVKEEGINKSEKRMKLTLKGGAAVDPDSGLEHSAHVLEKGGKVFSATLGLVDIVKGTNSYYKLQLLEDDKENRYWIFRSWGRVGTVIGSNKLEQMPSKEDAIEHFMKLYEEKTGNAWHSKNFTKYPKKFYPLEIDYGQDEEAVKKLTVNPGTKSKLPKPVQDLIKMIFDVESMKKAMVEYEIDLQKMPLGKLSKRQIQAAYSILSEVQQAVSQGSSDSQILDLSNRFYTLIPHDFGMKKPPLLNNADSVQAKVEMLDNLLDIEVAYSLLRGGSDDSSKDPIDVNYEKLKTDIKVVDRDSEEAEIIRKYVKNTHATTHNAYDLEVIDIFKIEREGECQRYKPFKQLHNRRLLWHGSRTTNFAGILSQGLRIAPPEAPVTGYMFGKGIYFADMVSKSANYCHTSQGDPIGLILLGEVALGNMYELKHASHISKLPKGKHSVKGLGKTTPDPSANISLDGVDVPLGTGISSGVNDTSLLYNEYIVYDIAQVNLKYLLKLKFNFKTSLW
PARP2, sequence (Q9UGN5 whole entry): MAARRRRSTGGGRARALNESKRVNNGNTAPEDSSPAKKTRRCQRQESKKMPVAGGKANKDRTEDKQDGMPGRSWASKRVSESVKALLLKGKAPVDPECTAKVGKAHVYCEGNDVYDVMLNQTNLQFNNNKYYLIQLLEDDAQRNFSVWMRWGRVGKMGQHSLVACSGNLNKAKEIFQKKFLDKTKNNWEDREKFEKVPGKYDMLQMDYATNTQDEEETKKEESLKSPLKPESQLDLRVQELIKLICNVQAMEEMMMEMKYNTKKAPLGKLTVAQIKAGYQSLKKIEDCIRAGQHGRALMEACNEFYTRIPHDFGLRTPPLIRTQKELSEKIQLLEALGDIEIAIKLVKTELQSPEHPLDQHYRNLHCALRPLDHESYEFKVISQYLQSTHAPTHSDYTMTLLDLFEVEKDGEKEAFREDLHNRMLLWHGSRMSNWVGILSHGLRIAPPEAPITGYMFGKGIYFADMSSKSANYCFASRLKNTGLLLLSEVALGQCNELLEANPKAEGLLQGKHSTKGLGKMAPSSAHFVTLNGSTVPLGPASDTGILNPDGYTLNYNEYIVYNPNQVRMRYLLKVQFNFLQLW
6×HIS-tankyrase1 (1091-1325), sequence (O95271 1091-1325): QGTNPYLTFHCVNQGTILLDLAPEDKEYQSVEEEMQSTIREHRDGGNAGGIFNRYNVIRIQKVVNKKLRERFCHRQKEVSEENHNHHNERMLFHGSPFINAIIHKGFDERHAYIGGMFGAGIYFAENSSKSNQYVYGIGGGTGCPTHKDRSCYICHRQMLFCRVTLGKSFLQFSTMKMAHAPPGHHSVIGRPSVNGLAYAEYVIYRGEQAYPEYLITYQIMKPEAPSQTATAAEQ
6×HIS-tankyrase 2 (946-1162), sequence (Q9H2K2 946-1162): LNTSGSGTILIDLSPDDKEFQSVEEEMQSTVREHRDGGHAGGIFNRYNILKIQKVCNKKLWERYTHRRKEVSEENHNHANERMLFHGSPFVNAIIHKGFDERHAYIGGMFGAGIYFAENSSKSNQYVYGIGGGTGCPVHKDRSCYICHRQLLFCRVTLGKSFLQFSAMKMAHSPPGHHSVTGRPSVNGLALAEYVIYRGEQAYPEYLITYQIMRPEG

SMILES	pIC50 [1]	pIC50 [2]	pIC50 [3]	pEC50 ([4]; SW480 cells, 24 hours)	pIC50 [5]	pIC50 [6]	pEC50 ([4]; SW480, 24 h)
Cn1c(=O)n(C2CCN(C(=O)CCCc3nc4ccccc4c(=O)[nH]3)CC2)c2ccc(Cl)cc21 [Example 45, 2-(4-(4-(5-chloro-3-methyl-2-oxo-2,3-dihydro-1H-benzimidazol-1-yl)-1-piperidinyl)-4-oxobutyl)-4(3H)-quinazolinone]	5.63	5.99	7.28	5.33	7.13		
O=C(CCSc1nc2ccccc2c(=O)[nH]1)N[C@H]1CC[C@H](c2nnc(-c3cccc(Cl)c3)o2)CC1 [Example 118, N-((1r,4r)-4-(5-(3-chlorophenyl)-1,3,4-oxadiazol-2-yl)cyclohexyl)-3-((4-oxo-3,4-dihydroquinazolin-2-yl)thio)propanamide]	8.92	5.48	8.30	8.48	9.97		
O=C(CCSc1nc2ccccc2c(=O)[nH]1)N[C@H]1C[C@@H](c2nnc(-c3ccccc3)o2)C1 [Example 39, 3-((4-oxo-3,4-dihydroquinazolin-2-yl)thio)-N-((1s,3s)-3-(5-phenyl-1,3,4-oxadiazol-2-yl)cyclobutyl)propanamide]		5.72	9.41		9.39		
O=C(CCc1nc2ccccc2c(=O)[nH]1)N[C@H]1CC[C@H](c2nnc(-c3cccc(F)c3)o2)CC1 [Example 129, N-((1r,4r)-4-(5-(3-fluorophenyl)-1,3,4-oxadiazol-2-yl)cyclohexyl)-3-(4-oxo-3,4-dihydroquinazolin-2-yl)propanamide]	6.91	5.71	7.89	6.36		5.96	
O=C(CCCc1nc2ccccc2c(=O)[nH]1)N[C@H]1CC[C@H](c2nnc(-c3ccc(F)c(Cl)c3)o2)CC1 [Example 35, N-(trans-4-(5-(3-chloro-4-fluorophenyl)-1,3,4-oxadiazol-2-yl)cyclohexyl)-4-(4-oxo-3,4-dihydro-2-quinazolinyl)butanamide 2,2,2-trifluoroacetate]	7.71	6.03	9.71	7.97	9.56		
O=c1[nH]c(CCNC(=O)[C@H]2CC[C@H](c3nnc(-c4ccccc4)o3)CC2)nc2ccccc12 [Example 1, trans-N-(2-(4-oxo-3,4-dihydro-2-quinazolinyl)ethyl)-4-(5-phenyl-1,3,4-oxadiazol-2-yl)cyclohexanecarboxamide]	6.85	5.49	7.65	5.86	7.18		
O=C(CCc1nc2ccccc2c(=O)[nH]1)N[C@H]1CC[C@H](n2c(=O)[nH]c3ccccc32)CC1 [Example 84, N-(trans-4-(2-oxo-2,3-dihydro-1H-benzo[d]imidazol-1-yl)cyclohexyl)-3-(4-oxo-3,4-dihydroquinazolin-2-yl)propanamide]	6.36	5.99	9.17	5.75	8.84		
O=C(CCc1nc2ccccc2c(=O)[nH]1)N[C@H]1CC[C@H](c2nnc(-c3ccccc3Cl)o2)CC1 [Example 128, N-((1r,4r)-4-(5-(2-chlorophenyl)-1,3,4-oxadiazol-2-yl)cyclohexyl)-3-(4-oxo-3,4-dihydroquinazolin-2-yl)propanamide]	6.23	6.56	7.09	5.76		5.41	
O=C(CCSc1nc2ccccc2c(=O)[nH]1)N[C@H]1CC[C@H](n2c(=O)[nH]c3cc(Cl)ccc32)CC1 [Example 90, N-((1r,4r)-4-(5-chloro-2-oxo-2,3-dihydro-1H-benzo[d]imidazol-1-yl)cyclohexyl)-3-((4-oxo-3,4-dihydroquinazolin-2-yl)thio)propanamide]	8.11	6.14	9.10	8.47	9.90		
O=C(CCc1nc2ccc(F)cc2c(=O)[nH]1)N[C@H]1CC[C@H](c2nnc(-c3ccccc3)o2)CC1 [Example 101, 3-(6-fluoro-4-oxo-3,4-dihydroquinazolin-2-yl)-N-((1r,4r)-4-(5-phenyl-1,3,4-oxadiazol-2-yl)cyclohexyl)propanamide]	6.60	6.38	7.82	6.11		6.03	
O=C(CCCc1nc2ccccc2c(=O)[nH]1)N1CCC(n2cc(-c3ccccc3)[nH]c2=O)CC1 [Example 49, 2-(4-oxo-4-(4-(2-oxo-4-phenyl-2,3-dihydro-1H-imidazol-1-yl)-1-piperidinyl)butyl)-4(3H)-quinazolinone trifluoroacetic acid]	6.28				6.93		5.27
O=C(CCSc1nc2ccccc2c(=O)[nH]1)N[C@H]1CC[C@H](c2nnc(-c3cccc(F)c3)o2)CC1 [Example 119, N-((1r,4r)-4-(5-(3-fluorophenyl)-1,3,4-oxadiazol-2-yl)cyclohexyl)-3-((4-oxo-3,4-dihydroquinazolin-2-yl)thio)propanamide]	8.52		8.48	8.24	9.71		
O=C(CCc1nc2ccccc2c(=O)[nH]1)N[C@H]1CC[C@H](c2nnc(-c3ccc(F)cc3)o2)CC1 [Example 127, N-((1r,4r)-4-(5-(4-fluorophenyl)-1,3,4-oxadiazol-2-yl)cyclohexyl)-3-(4-oxo-3,4-dihydroquinazolin-2-yl)propanamide]	6.80	5.64	7.90	6.51		5.71	
O=C(CCSc1nc2ccccc2c(=O)[nH]1)N[C@H]1CC[C@H](c2nnc(-c3ccc(Cl)cc3)o2)CC1 [Example 125, N-((1r,4r)-4-(5-(4-chlorophenyl)-1,3,4-oxadiazol-2-yl)cyclohexyl)-3-((4-oxo-3,4-dihydroquinazolin-2-yl)thio)propanamide]	8.71		9.75	8.77	8.82		
O=C(CCSc1nc2ccccc2c(=O)[nH]1)N[C@H]1C[C@H](c2nnc(-c3ccccc3)o2)C1 [Example 40, 3-((4-oxo-3,4-dihydroquinazolin-2-yl)thio)-N-((1r,3r)-3-(5-phenyl-1,3,4-oxadiazol-2-yl)cyclobutyl)propanamide]		5.40			10.05		
O=C(CCSc1nc2ccccc2c(=O)[nH]1)N[C@H]1CC[C@H](c2nnc(-c3ccc(F)cc3)o2)CC1 [Example 117, N-((1r,4r)-4-(5-(4-fluorophenyl)-1,3,4-oxadiazol-2-yl)cyclohexyl)-3-((4-oxo-3,4-dihydroquinazolin-2-yl)thio)propanamide]	8.91		8.40	8.56	9.57		

Now from value to compound, other results behind:

pIC50 [1]	pIC50 [2]	pIC50 [3]	pEC50 ([4]; SW480 cells, 24 hours)	pIC50 [5]	pIC50 [6]	SMILES	pEC50 ([4]; SW480, 24 h)
	5.77	6.69	5.19		5.26	O=C(CCc1nc2ccccc2c(=O)[nH]1)N[C@H]1CC[C@H](c2nnc(-c3cnccn3)o2)CC1 [Example 142, 3-(4-oxo-3,4-dihydroquinazolin-2-yl)-N-((1r,4r)-4-(5-(pyrazin-2-yl)-1,3,4-oxadiazol-2-yl)cyclohexyl)propanamide]	
5.75		6.73	4.92		5.25	O=C(CCc1nc2ccccc2c(=O)[nH]1)N[C@H]1CC[C@H](c2nnc(-c3ccccn3)o2)CC1 [Example 131, 3-(4-oxo-3,4-dihydroquinazolin-2-yl)-N-((1r,4r)-4-(5-(pyridin-2-yl)-1,3,4-oxadiazol-2-yl)cyclohexyl)propanamide]	
	5.89			5.92	5.13	CC(C)(c1ccccc1)c1nnc([C@H]2CC[C@H](NC(=O)CCc3nc4ccccc4c(=O)[nH]3)CC2)o1 [Example 140, 3-(4-oxo-3,4-dihydroquinazolin-2-yl)-N-((1r,4r)-4-(5-(2-phenylpropan-2-yl)-1,3,4-oxadiazol-2-yl)cyclohexyl)propanamide]	
6.02	5.97	7.49	5.92		4.97	O=C(CCc1nc2ccccc2c(=O)[nH]1)N[C@H]1CC[C@H](c2nnc(-c3cccnc3)o2)CC1 [Example 136, 3-(4-oxo-3,4-dihydroquinazolin-2-yl)-N-((1r,4r)-4-(5-(pyridin-3-yl)-1,3,4-oxadiazol-2-yl)cyclohexyl)propanamide]	
	5.95	6.20	< 4.60		5.09	O=C(CCc1nc2ccccc2c(=O)[nH]1)N[C@H]1CC[C@H](c2nnc(Cc3ccccc3)o2)CC1 [Example 139, N-((1r,4r)-4-(5-benzyl-1,3,4-oxadiazol-2-yl)cyclohexyl)-3-(4-oxo-3,4-dihydroquinazolin-2-yl)propanamide]	
6.03		7.28	6.01	7.75		O=C(CC[S+]([O-])c1nc2ccccc2c(=O)[nH]1)N[C@H]1CC[C@H](c2nnc(-c3ccccc3)o2)CC1 (stereo partly drawn) [Example 143, 3-((4-oxo-3,4-dihydroquinazolin-2-yl)sulfinyl)-N-((1r,4r)-4-(5-phenyl-1,3,4-oxadiazol-2-yl)cyclohexyl)propanamide]	
6.96	6.03	8.10	6.62		6.00	O=C(CCc1nc2ccccc2c(=O)[nH]1)N[C@H]1CC[C@H](c2nnc(-c3cccc(Cl)c3)o2)CC1 [Example 130, N-((1r,4r)-4-(5-(3-chlorophenyl)-1,3,4-oxadiazol-2-yl)cyclohexyl)-3-(4-oxo-3,4-dihydroquinazolin-2-yl)propanamide]	
